Values quoted from earlier work as cited in publication PMC9851200, “Multiparameter phenotypic screening for endogenous TFEB and TFE3 translocation identifies novel chemical series modulating lysosome function” (Autophagy, 2022).

How the values were obtained:
Design in all cases: method as in original PKIS2 published data
[1] = target: T1, kinases (KINOMEscan panel) (Homo sapiens, UniProt Q15835); conditions: Published KINOMEscan; ref original PKIS2 published data; cited from earlier work
T1 sequence (Q15835 1-563): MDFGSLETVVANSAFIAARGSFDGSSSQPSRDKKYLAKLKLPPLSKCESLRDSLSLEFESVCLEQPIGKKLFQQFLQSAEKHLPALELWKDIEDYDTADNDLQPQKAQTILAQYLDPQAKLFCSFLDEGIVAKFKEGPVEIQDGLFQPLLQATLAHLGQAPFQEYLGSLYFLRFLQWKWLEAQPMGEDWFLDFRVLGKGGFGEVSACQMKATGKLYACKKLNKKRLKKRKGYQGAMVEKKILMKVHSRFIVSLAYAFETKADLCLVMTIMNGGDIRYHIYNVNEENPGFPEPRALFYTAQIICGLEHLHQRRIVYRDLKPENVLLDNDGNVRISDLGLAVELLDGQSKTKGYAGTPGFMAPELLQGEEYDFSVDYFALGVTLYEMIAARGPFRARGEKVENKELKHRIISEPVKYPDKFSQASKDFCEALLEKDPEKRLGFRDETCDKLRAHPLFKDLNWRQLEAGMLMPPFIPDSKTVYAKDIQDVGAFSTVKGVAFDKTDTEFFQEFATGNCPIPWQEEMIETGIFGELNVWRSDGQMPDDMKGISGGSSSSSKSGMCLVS

[2] = target: kinases (KINOMEscan panel) (Homo sapiens, UniProt Q9H2X6); conditions: Published KINOMEscan; ref original PKIS2 published data; cited from earlier work
[3] = target: T2, kinases (KINOMEscan panel) (Homo sapiens, UniProt P51813); conditions: BMX; Published KINOMEscan; ref original PKIS2 published data; cited from earlier work
T2 sequence (P51813 1-675): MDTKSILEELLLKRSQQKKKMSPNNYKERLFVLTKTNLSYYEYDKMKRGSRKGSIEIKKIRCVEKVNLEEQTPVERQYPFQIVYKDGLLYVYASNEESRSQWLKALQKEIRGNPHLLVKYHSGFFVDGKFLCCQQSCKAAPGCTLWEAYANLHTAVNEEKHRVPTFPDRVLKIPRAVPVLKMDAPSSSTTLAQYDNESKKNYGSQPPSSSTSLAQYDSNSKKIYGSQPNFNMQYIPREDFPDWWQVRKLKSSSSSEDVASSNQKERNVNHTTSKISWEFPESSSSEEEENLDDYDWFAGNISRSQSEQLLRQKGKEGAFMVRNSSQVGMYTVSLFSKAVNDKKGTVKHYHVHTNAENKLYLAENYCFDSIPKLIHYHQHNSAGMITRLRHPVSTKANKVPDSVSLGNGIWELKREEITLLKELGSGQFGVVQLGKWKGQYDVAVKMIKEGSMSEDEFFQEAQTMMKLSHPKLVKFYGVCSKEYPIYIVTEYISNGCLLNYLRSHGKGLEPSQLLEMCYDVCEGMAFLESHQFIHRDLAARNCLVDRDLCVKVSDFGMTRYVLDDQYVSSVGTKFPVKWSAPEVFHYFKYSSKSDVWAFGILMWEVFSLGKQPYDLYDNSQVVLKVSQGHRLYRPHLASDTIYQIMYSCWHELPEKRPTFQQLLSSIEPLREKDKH

[4] = target: kinases (KINOMEscan panel) (Homo sapiens, UniProt P51451); conditions: kinase BLK; Published KINOMEscan; ref original PKIS2 published data; cited from earlier work
[5] = target: kinases (KINOMEscan panel) (Homo sapiens, UniProt Q00536); conditions: kinase CDK16; Published KINOMEscan; ref original PKIS2 published data; cited from earlier work
[6] = target: T3, kinases (KINOMEscan panel) (Homo sapiens, UniProt Q8WTQ7); conditions: kinase GRK7; Published KINOMEscan; ref original PKIS2 published data; cited from earlier work
T3 sequence (Q8WTQ7 1-553): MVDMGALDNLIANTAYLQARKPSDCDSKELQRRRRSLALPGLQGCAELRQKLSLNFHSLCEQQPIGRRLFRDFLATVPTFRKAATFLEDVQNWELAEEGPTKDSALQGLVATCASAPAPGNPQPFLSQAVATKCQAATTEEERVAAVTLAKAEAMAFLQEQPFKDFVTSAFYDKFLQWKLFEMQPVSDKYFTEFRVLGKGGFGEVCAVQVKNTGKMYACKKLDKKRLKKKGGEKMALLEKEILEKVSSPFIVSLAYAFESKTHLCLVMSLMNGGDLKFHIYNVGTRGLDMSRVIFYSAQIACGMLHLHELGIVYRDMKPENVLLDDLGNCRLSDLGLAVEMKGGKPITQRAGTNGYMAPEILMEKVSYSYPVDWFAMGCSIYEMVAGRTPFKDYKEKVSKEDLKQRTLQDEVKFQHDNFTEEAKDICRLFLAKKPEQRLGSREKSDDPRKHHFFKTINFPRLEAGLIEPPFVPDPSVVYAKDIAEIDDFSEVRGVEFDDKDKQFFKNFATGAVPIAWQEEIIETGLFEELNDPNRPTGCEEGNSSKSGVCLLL

Sequence of kinases (KINOMEscan panel) (Homo sapiens, UniProt Q00536) (Q00536 whole entry): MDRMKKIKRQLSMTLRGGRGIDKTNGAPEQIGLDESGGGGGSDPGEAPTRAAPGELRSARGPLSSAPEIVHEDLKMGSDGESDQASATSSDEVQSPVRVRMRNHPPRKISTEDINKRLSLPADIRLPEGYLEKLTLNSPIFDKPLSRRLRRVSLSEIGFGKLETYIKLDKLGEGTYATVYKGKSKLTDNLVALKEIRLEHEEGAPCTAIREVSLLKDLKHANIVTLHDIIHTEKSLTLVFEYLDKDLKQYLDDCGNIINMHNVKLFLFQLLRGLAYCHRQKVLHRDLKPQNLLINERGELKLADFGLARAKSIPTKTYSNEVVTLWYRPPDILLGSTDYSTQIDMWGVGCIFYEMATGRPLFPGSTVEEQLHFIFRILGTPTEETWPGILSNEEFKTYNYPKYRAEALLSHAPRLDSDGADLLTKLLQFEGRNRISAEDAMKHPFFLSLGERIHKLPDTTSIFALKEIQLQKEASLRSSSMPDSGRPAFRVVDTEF
Sequence of kinases (KINOMEscan panel) (Homo sapiens, UniProt Q9H2X6) (Q9H2X6 whole entry): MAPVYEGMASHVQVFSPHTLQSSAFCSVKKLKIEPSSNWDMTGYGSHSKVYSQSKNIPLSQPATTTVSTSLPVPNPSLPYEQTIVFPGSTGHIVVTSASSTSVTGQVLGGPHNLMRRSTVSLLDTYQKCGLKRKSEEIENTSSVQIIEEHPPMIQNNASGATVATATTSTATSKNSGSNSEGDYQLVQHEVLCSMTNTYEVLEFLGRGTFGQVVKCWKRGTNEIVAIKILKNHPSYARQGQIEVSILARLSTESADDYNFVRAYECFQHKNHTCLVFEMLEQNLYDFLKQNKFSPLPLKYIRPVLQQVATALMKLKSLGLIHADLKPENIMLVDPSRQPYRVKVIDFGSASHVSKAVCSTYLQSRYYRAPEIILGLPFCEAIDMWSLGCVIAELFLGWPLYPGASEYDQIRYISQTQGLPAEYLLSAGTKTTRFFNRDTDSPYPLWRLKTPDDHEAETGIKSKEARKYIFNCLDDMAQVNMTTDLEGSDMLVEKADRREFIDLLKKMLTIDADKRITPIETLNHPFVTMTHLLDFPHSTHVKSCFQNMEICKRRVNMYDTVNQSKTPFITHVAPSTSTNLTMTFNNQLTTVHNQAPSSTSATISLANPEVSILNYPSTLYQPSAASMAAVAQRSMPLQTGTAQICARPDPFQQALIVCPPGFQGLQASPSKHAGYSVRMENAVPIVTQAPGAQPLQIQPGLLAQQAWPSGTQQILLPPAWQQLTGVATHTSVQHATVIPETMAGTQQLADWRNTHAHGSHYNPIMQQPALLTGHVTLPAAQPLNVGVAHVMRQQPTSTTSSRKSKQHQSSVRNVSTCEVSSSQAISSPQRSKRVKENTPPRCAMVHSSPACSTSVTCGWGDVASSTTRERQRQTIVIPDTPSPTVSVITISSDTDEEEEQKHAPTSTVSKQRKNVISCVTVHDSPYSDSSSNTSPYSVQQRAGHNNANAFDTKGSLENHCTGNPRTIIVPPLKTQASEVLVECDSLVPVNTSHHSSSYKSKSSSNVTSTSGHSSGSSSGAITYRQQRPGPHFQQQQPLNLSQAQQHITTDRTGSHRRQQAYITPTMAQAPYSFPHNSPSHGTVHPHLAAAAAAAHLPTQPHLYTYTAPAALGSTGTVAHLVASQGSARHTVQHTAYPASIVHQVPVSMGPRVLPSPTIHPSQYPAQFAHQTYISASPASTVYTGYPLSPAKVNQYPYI
Sequence of kinases (KINOMEscan panel) (Homo sapiens, UniProt P51451) (P51451 whole entry): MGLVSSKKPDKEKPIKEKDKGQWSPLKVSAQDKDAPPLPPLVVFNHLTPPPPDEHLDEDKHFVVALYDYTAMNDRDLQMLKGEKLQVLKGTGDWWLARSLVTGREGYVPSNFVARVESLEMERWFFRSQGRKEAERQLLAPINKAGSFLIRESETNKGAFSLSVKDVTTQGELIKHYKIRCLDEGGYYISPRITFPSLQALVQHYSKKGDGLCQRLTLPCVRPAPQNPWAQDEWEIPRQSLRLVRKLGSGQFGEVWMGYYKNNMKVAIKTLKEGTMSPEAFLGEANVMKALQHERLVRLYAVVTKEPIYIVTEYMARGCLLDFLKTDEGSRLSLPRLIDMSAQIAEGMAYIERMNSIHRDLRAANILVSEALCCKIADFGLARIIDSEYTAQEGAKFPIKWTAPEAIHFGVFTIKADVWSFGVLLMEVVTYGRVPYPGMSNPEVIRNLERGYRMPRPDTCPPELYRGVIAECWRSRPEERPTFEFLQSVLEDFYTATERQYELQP

In the case of Cc1cccc(-c2nc(Nc3ccncc3)c3ccccc3n2)n1 [NK215], the “KINOMEscan GRK1” value [1] is given as 0, the “KINOMEscan HIPK2” value [2] is given as 0 and the “KINOMEscan BMX” value [3] is given as 6. For the same compound, the “KINOMEscan BLK” value [4] was 1, the “KINOMEscan CDK16” value [5] was 0 and the “KINOMEscan GRK7” value [6] was 0.
